Measured values from patent publication US11524963B2, “Substituted pyrazolo[3,4-d]pyrimidines as RET kinase inhibitors” (Array Biopharma Inc., priority 2018, dated 2022).
Residue numbers refer to the chain shown, from its start.

Key:
RET kinase Wild Type = RET kinase Wild Type (Homo sapiens, UniProt P07949); experiment: RET Enzyme Assay (HTRF KinEASE-TK), Wild Type; assay type: biochemical
RET kinase V804M = RET kinase V804M (Homo sapiens, UniProt P07949, V804M); experiment: RET Enzyme Assay (HTRF KinEASE-TK), V804M; assay type: biochemical
Chain of RET kinase V804M (P07949 29-1114 V804M): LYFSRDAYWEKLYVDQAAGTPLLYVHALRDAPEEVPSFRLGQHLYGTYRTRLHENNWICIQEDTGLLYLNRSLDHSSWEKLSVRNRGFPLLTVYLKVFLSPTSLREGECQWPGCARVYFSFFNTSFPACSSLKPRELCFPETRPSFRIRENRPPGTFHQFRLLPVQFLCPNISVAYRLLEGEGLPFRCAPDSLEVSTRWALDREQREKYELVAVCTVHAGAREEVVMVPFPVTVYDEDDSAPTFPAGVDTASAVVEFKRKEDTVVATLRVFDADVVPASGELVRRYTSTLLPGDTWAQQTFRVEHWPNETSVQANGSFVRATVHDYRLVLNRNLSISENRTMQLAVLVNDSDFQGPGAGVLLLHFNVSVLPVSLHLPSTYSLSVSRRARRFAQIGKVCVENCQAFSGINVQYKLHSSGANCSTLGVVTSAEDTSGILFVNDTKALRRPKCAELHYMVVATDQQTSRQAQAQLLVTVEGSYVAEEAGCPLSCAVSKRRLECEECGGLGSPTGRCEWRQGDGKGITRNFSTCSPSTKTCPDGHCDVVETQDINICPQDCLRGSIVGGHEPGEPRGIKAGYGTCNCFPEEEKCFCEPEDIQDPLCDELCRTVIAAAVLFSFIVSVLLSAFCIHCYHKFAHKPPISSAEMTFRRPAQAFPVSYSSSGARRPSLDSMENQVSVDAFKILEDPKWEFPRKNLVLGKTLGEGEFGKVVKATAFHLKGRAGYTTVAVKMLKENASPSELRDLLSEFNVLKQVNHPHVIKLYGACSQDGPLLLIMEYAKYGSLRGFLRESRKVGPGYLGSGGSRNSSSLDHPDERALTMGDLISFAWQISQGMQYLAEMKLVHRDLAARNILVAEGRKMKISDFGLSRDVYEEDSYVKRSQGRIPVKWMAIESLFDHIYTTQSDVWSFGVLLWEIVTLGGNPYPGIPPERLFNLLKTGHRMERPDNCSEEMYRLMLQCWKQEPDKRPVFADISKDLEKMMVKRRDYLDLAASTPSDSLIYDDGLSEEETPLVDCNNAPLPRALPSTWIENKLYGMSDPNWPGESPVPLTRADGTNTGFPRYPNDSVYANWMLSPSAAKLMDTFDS

RET kinase M918T = RET kinase M918T (Homo sapiens, UniProt P07949, M918T); experiment: RET Enzyme Assay (HTRF KinEASE-TK), M918T; assay type: biochemical
Chain of RET kinase M918T (P07949 29-1114 M918T): as the sequence (P07949 29-1114 V804M) above, with M776V, M890T counted along it

RET kinase G810R = RET kinase G810R (Homo sapiens, UniProt P07949, G810R); experiment: RET Enzyme Assay (HTRF KinEASE-TK), G810R; assay type: biochemical
Chain of RET kinase G810R (P07949 29-1114 G810R): as the sequence (P07949 29-1114 V804M) above, with M776V, G782R counted along it

RET kinase G810S = RET kinase G810S (Homo sapiens, UniProt P07949, G810S); experiment: RET Enzyme Assay (HTRF KinEASE-TK), G810S; assay type: biochemical
Chain of RET kinase G810S (P07949 29-1114 G810S): as the sequence (P07949 29-1114 V804M) above, with M776V, G782S counted along it

[1] = biological target: T1, HEK-293 cells expressing a Kif5b-RET fusion protein (Homo sapiens, UniProt P07949); experiment: RET Cell Assay (phospho-RET Tyr1062); assay type: cell-based; conditions: 1 hour with compound, phospho-RET(Tyr1062) normalized to GAPDH, read-out: KIF5B-RET pTYR1062 Cell IC50
T1 construct: expressed in transfected cells; host or cells: HEK-293; the other entry of the earlier key: KIF5B (P33176, Kinesin-1 heavy chain)
T1 sequence (P07949 713-1063 limits assumed): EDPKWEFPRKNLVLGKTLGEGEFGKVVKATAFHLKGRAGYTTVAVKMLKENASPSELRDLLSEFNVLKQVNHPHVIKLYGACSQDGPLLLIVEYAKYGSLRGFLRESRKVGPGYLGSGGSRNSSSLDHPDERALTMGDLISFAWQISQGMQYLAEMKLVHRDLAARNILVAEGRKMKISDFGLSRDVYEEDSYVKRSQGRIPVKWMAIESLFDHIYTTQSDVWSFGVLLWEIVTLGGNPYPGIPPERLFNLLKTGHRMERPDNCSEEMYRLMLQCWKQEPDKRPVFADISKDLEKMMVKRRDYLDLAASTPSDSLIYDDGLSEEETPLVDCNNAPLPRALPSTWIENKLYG
Protocol: (§1) The cellular potency of compounds inhibiting RET kinase were determined in HEK-293 cells expressing a Kif5b-RET fusion protein. Briefly, HEK-293 cells expressing a Kif5b-RET fusion protein were plated at 50K cells/well in 96 well poly-D-Lysine coated plates the day prior to the assay. The cells were incubated for 1 hour with test compound in DMEM (Dulbecco's Modified Eagle Medium) at a final DMSO concentration of 0.5%. […] After 1 hour the media was removed, the cells were fixed with 3.8% formaldehyde for 20 min, washed with PBS, and permeabilized for 10 min with 100% methanol. […] All antibodies were diluted in LI-COR Block containing 0.05% Tween. The plates were washed with PBS-0.05% Tween20, 100 μL PBS is added to each well, and the plates were read on a LI-COR Aerius fluorescent plate reader. The phospho-RET signal was normalized to the GAPDH signal. 100 POC (percent of control) was determined using no test compounds and 0 POC was determined using 1 μM of a control inhibitor. The POC values were fit to a 4 parameter logistic curve. The IC50 value is the point where the curve crosses 50 POC.

[2] = biological target: T2, HEK-293 cells expressing a G810R mutant RET Kif5b-RET fusion protein (Homo sapiens, UniProt P07949, G810R); experiment: RET G810R Mutant Cell Assay (phospho-RET Tyr1062); assay type: cell-based; conditions: 1 hour with compound, phospho-RET(Tyr1062) normalized to GAPDH
T2 construct: expressed in transfected cells; host or cells: HEK-293; the other entry of the earlier key: KIF5B (P33176, Kinesin-1 heavy chain)
T2 sequence (P07949 713-1063 G810R limits assumed): T1 sequence (P07949 713-1063 limits assumed) with G98R
Protocol: RET G810R and G810S Mutant Cell Assay
as §1, with “expressing a G810R or G810S mutant RET Kif5b-RET fusion” for “expressing a Kif5b-RET fusion”, “μL PBS was added to” for “μL PBS is added to”, “POC values are fit to” for “POC values were fit to”

Chain of RET kinase Wild Type (P07949 29-1114): as the sequence (P07949 29-1114 V804M) above, with M776V counted along it

SMILES: CC(C)n1nc(-c2noc(C3CC3)c2C2=CCC(C)(O)CC2)c2c(N)ncnc21 (stereo not shown) [Example 15, 4-(3-(4-amino-1-isopropyl-1H-pyrazolo[3,4-d]pyrimidin-3-yl)-5-cyclopropylisoxazol-4-yl)-1-methylcyclohex-3-en-1-ol]
- IC50 (RET kinase Wild Type): 1.3 nM
- IC50 (RET kinase V804M): 6.5 nM
- IC50 (RET kinase M918T): 1.6 nM
- IC50 (RET kinase G810R): 6.3 nM
- IC50 (RET kinase G810S): 6.3 nM
- IC50 [1]: 42 nM
- IC50 [2]: 263 nM

SMILES: CC(C)n1nc(-c2ccnn2C2CCCCO2)c2c(N)ncnc21 (stereo not shown) [Example 23, 1-isopropyl-3-(1-(tetrahydro-2H-pyran-2-yl)-1H-pyrazol-5-yl)-1H-pyrazolo[3,4-d]pyrimidin-4-amine]
- IC50 (RET kinase Wild Type): 4.1 nM
- IC50 (RET kinase V804M): 27.4 nM
- IC50 (RET kinase M918T): 8.5 nM
- IC50 (RET kinase G810R): 15.8 nM
- IC50 (RET kinase G810S): 46 nM
- IC50 [1]: 344 nM
- IC50 [2]: 10000 nM

SMILES: CC(C)n1nc(-c2noc(C3CC3)c2-c2ccn(C)n2)c2c(N)ncnc21 [Example 2, 3-(5-cyclopropyl-4-(1-methyl-1H-pyrazol-3-yl)isoxazol-3-yl)-1-isopropyl-1H-pyrazolo[3,4-d]pyrimidin-4-amine]
- IC50 (RET kinase Wild Type): 1.2 nM
- IC50 (RET kinase V804M): 2.1 nM
- IC50 (RET kinase M918T): 1.1 nM
- IC50 (RET kinase G810R): 4.4 nM
- IC50 (RET kinase G810S): 4.4 nM
- IC50 [1]: 75 nM
- IC50 [2]: 247 nM

SMILES: CC(C)n1nc(-c2noc(C3CC3)c2C2CCCCO2)c2c(N)ncnc21 (stereo not shown) [Example 16, 3-(5-cyclopropyl-4-(tetrahydro-2H-pyran-2-yl)isoxazol-3-yl)-1-isopropyl-1H-pyrazolo[3,4-d]pyrimidin-4-amine]
- IC50 (RET kinase Wild Type): 0.6 nM
- IC50 (RET kinase V804M): 1.3 nM
- IC50 (RET kinase M918T): 0.7 nM
- IC50 (RET kinase G810R): 3.6 nM
- IC50 (RET kinase G810S): 4 nM
- IC50 [1]: 28 nM
- IC50 [2]: 162 nM
